Reference: ChEMBL document CHEMBL1201862, “PubChem BioAssay data set” (2004)
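Step 1: Grow cells in 96-well plates. Step 2: Expose to compound for 48 hours at 5 concentrations. Step 3: Interpolate endpoints linearly; if unreached, use highest concentration. Here, GI50 denotes the concentration required for 50% inhibition of growth.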 Activity calls are given as the source filed them. Cut-off read from the data, not from the text of the source: active = GI50 up to about 1.1 µM and inactive = higher.

Assays:
Assay in all cases: growth of human tumour cells (NCI), 48 h
A498 = test system: A498
HL-60 = test system: HL-60
SF-539 = test system: SF-539
UO-31 = test system: UO-31
DMS-114 = test system: DMS-114
DLD-1 = test system: DLD-1
M14 = test system: M14
OVCAR-8 = test system: OVCAR-8
SK-MEL-28 = test system: SK-MEL-28
U-251 = test system: U-251
SK-OV-3 = test system: SK-OV-3
OVCAR-5 = test system: OVCAR-5
HOP-18 = test system: HOP-18
SW-620 = test system: SW-620
K562 = test system: K562
EKVX = test system: EKVX
IGROV-1 = test system: IGROV-1
LXFL 529 = test system: LXFL 529
RPMI-8226 = test system: RPMI-8226
KM12 = test system: KM12
NCI-H23 = test system: NCI-H23
NCI-H522 = test system: NCI-H522
UACC-257 = test system: UACC-257
UACC-62 = test system: UACC-62
HCT-15 = test system: HCT-15
M19-MEL = test system: M19-MEL
SF-268 = test system: SF-268
HOP-92 = test system: HOP-92
KM-20L2 = test system: KM-20L2
TK-10 = test system: TK-10
SF-295 = test system: SF-295
CCRF-CEM = test system: CCRF-CEM
COLO 205 = test system: COLO 205
A549 = test system: A549
SNB-78 = test system: SNB-78
NCI-H460 = test system: NCI-H460
RXF 393 = test system: RXF 393
SNB-19 = test system: SNB-19
SK-MEL-2 = test system: SK-MEL-2
SNB-75 = test system: SNB-75
Malme-3M = test system: Malme-3M
HCT-116 = test system: HCT-116
MOLT-4 = test system: MOLT-4
SK-MEL-5 = test system: SK-MEL-5
XF498 = test system: XF498
OVCAR-4 = test system: OVCAR-4
SN12C = test system: SN12C
OVCAR-3 = test system: OVCAR-3
CAKI-1 = test system: CAKI-1
HT-29 = test system: HT-29
786-0 = test system: 786-0
DMS-273 = test system: DMS-273
LOX IMVI = test system: LOX IMVI
RXF 631 = test system: RXF 631
NCI-H226 = test system: NCI-H226

Measured: GI50

FC1OC2OC1C(OCc1ccccc1)C(OCc1ccccc1)C2OCc1ccccc1 (stereo not given)
inactive: A498 > 100 µM | HL-60 24.9 µM | SF-539 > 100 µM | UO-31 36.1 µM | DMS-114 29.5 µM | DLD-1 37.9 µM | M14 28.1 µM | OVCAR-8 35.4 µM | SK-MEL-28 33.4 µM | U-251 88.3 µM | SK-OV-3 > 100 µM | OVCAR-5 > 100 µM | HOP-18 24.3 µM | SW-620 40.6 µM | K562 25.8 µM | EKVX 87.7 µM | IGROV-1 34.6 µM | LXFL 529 34 µM | RPMI-8226 22.9 µM | KM12 49.1 µM | NCI-H23 > 100 µM | NCI-H522 > 10 µM | UACC-257 35.5 µM | UACC-62 30.1 µM | M19-MEL 29.8 µM | SF-268 32.4 µM | HOP-92 15.3 µM | KM-20L2 42.8 µM | TK-10 52.8 µM | SF-295 > 100 µM | CCRF-CEM 26.6 µM | COLO 205 61.9 µM | A549 72.8 µM | SNB-78 61.1 µM | NCI-H460 > 100 µM | RXF 393 > 100 µM | SNB-19 84.9 µM | SK-MEL-2 71.8 µM | SNB-75 34.7 µM | Malme-3M 48.3 µM | HCT-116 25.3 µM | MOLT-4 22.8 µM | SK-MEL-5 45.6 µM | XF498 23.6 µM | OVCAR-4 34.1 µM | SN12C 58.6 µM | OVCAR-3 36.8 µM | CAKI-1 35.5 µM | HT-29 34.8 µM | 786-0 43.2 µM | DMS-273 > 100 µM | LOX IMVI 43.8 µM | RXF 631 71.1 µM | NCI-H226 77.3 µM
35.7 µM: HCT-15
